The results in this text go back to patent US4309428A, “Maytansinoids” (Takeda Chemical Industries, Ltd., priority 1979, dated 1982).

Experiment [1] relates to melanoma B-16 tumor cells. The experiment can be described thus: Antitumor activity: life span prolongation in mice with intraperitoneally transplanted melanoma B-16 (NCI protocol). The following applies: intraperitoneally once daily for 9 days. The class given is in vivo. Here is the method: Therapeutic tests were carried out in mice according to NCI-protocol 1,300, Cancer Chemother, Reports, Part 3, 1972, Vol. 3, No. 2, in which melanoma B-16 tumor cells had been intraperitoneally transplanted, compound (I) being administered intraperitoneally once daily for 9 consecutive days.

For experiment [2], the system named is Tetrahymena pyriformis W. The experiment can be described thus: Antiprotozoal activity, serial dilution method. The class given is cell-based. Here is the method:
Antiprotozoal activity of compound (I) was assayed with Tetrahymena pyriformis W as the test organism and a medium composed of 20 g tryptose-peptone (Difco Co.), 1 g yeast extract, 2 g glucose, 1000 ml distilled water, 10 ml 1 M phosphate buffer (pH 7.0) as the assay medium. The microorganism was incubated at 28° C. for 44 to 48 hours and the growth inhibitory activity of compound (I) was assayed by the serial dilution method.

[3] abbreviates: 28° C., 44 to 48 hours, pH 7.0, read-out: Antiprotozoal activity MIC.

A word on the MIC: it is the lowest concentration that inhibits growth of the organism.

The structures appear in SMILES notation. Converted amounts (≈) assume the structure as drawn. Where two headings read alike, the source gives them in different places.

For `COC1C=CC=C(C)Cc2cc(OCC(=O)c3ccccc3)c(Cl)c(c2)N(C)C(=O)CC(OC(=O)C(C)C)C2(C)OC2C(C)C2CC1(O)NC(=O)O2` (centres unmarked) [PDM-3-C20-phenacylether, PDM-3-C20-phenacyl ether], the “Antitumor activities B-16 (T/C %)” value in experiment [1] (50 μg/kg) is on record as 188%; in experiment [1] (100 μg/kg), 176%; in experiment [1] (200 μg/kg), 211%; in experiment [1] (400 μg/kg), 203%.

Consider `CCOCCOCCOc1cc2cc(c1Cl)N(C)C(=O)CC(OC(=O)C(C)C)C1(C)OC1C(C)C1CC(O)(NC(=O)O1)C(OC)C=CC=C(C)C2` (centres unmarked) [C20-2-(2-ethoxyethoxy)ethyl ether, PDM-3-C20-2-(2-ethoxyethoxy)ethyl ether], for which the MIC in experiment [2] (setting [3]) came out at 2 µg/mL (≈ 2.71 µM).

Regarding `COC1C=CC=C(C)Cc2cc(OCc3ccccc3)c(Cl)c(c2)N(C)C(=O)CC(OC(=O)C(C)C)C2(C)OC2C(C)C2CC1(O)NC(=O)O2` (centres unmarked) [PDM-3-C20-benzylether, PDM-3-C20-benzyl ether], the figures for the “Antitumor activities B-16 (T/C %)” value in experiment [1] (25 μg/kg), in experiment [1] (50 μg/kg) and in experiment [1] (100 μg/kg) were 182%, 220% and 234%, respectively. Further, the MIC in experiment [2] (setting [3]) was at most 1 µg/mL.

Consider `COC1C=CC=C(C)Cc2cc(OCC(=NNC(=O)c3ccncc3)c3ccccc3)c(Cl)c(c2)N(C)C(=O)CC(OC(=O)C(C)C)C2(C)OC2C(C)C2CC1(O)NC(=O)O2` (centres unmarked) [PDM-3-C20-(2-isonicotinoylhydrazono-2-phenyl)ethyl ether], for which the MIC in experiment [2] (setting [3]) fell in the range of 2 to 4 µg/mL (≈ 2.33 to 4.66 µM). `CCOc1cc2cc(c1Cl)N(C)C(=O)CC(OC(=O)C(C)C)C1(C)OC1C(C)C1CC(O)(NC(=O)O1)C(OC)C=CC=C(C)C2` (centres unmarked) [C20 -ethoxy ether, PDM-3-C20-ethyl ether]: the MIC in experiment [2] (pH 7, read-out: Antiprotozoal activity MIC) was at most 1 µg/mL. As to `CCOC(=O)COc1cc2cc(c1Cl)N(C)C(=O)CC(OC(=O)C(C)C)C1(C)OC1C(C)C1CC(O)(NC(=O)O1)C(OC)C=CC=C(C)C2` (centres unmarked) [C20 -ethoxycarbonylmethyl ether, PDM-3-C20-ethoxycarbonylmethyl ether], in experiment [2] (setting [3]), the MIC lay in the range of 1 to 2 µg/mL (≈ 1.41 to 2.83 µM). Consider `CCOC(COc1cc2cc(c1Cl)N(C)C(=O)CC(OC(=O)C(C)C)C1(C)OC1C(C)C1CC(O)(NC(=O)O1)C(OC)C=CC=C(C)C2)OCC` (stereo not drawn) [PDM-3-C20-(β,β-diethoxy)ethyl ether, PDM-3-C20 -β,β-diethoxyethyl ether], for which the entries for the “Antitumor activities B-16 (T/C %)” value in experiment [1] (25 μg/kg), in experiment [1] (50 μg/kg) and in experiment [1] (100 μg/kg) were 194%, 211% and 240%, respectively. As for `CCOC(=O)CC(=O)COc1cc2cc(c1Cl)N(C)C(=O)CC(OC(=O)C(C)C)C1(C)OC1C(C)C1CC(O)(NC(=O)O1)C(OC)C=CC=C(C)C2` (centres unmarked) [C20 -γ-ethoxycarbonylacetonyl ether, PDM-3-C20 -γ-ethoxycarbonylacetonyl ether], in experiment [2] (setting [3]), the MIC was determined as 4 µg/mL (≈ 5.34 µM). In the case of `C=CCOc1cc2cc(c1Cl)N(C)C(=O)CC(OC(=O)C(C)C)C1(C)OC1C(C)C1CC(O)(NC(=O)O1)C(OC)C=CC=C(C)C2` (centres unmarked) [C20 -allyl ether, PDM-3-C20-allyl ether], the MIC in experiment [2] (setting [3]) was at most 1 µg/mL.
